Our source for the GI50 and TGI values is PubChem BioAssay (NCI).

Test systems include 786-0 renal; A498 renal; HS 578T breast; K-562 leukemia; MALME-3M melanoma; NCI-H522 lung; SF-268 CNS; SK-MEL-2 melanoma; TK-10 renal; UO-31 renal.
Holding throughout (assay): NCI anticancer screen, dose series, 48 h

Molecules are shown by their SMILES.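 Assay format: 96-well plates, 48-hour exposure. GI50 is the concentration that inhibits growth by half. TGI denotes the concentration required for complete inhibition of growth.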

On to `Cc1cc(Nc2nc(-c3ccncc3)nc3ccccc23)n[nH]1`, for which the GI50 was 2980 nM in the assay with 786-0 renal; 654 nM in the assay on A498 renal; 1360 nM in the assay with HS 578T breast; 4.99 µM in the assay with K-562 leukemia; above 100000 nM in the assay with MALME-3M melanoma; 13.1 µM with NCI-H522 lung. The GI50 is 5.62 µM in the assay on SF-268 CNS, 34300 nM with SK-MEL-2 melanoma, 2070 nM in the assay with TK-10 renal and 1230 nM in the assay on UO-31 renal. Further, the TGI is above 100 µM in the assay with 786-0 renal; 6.01 µM in the assay with A498 renal; 7.47 µM in the assay on HS 578T breast; above 100 µM in the assay on K-562 leukemia; above 100 µM in the assay with MALME-3M melanoma; above 100 µM with NCI-H522 lung. Also, the TGI in the assay on SF-268 CNS, in the assay with SK-MEL-2 melanoma, in the assay with TK-10 renal and with UO-31 renal was above 100 µM throughout.

Consider `C=CC(C)(O)CC/C=C(\CO)C(=O)OC1C(C)OC(O[C@](C)(C=C)CC/C=C(\CO)C(=O)O[C@H]2C[C@@]3(C(=O)OC4OC(CO)C(O)C(O)C4OC4OC(C)C(OC5OC(CO)C(O)C5O)C(OC5OC(CO)C(O)C(O)C5O)C4O)C(CC2(C)C)C2=CCC4[C@@]5(C)CC[C@H](OC6OC(COC7OC(C)C(O)C(O)C7OC7OCC(O)C(O)C7O)C(O)C(O)C6NC(C)=O)C(C)(C)C5CC[C@@]4(C)[C@]2(C)C[C@H]3O)C(O)C1O` (stereo not given in full), for which the GI50 in the assay with 786-0 renal is 155 nM; in the assay on A498 renal, 142 nM; in the assay on HS 578T breast it was 989 nM; with K-562 leukemia it was 7.13 µM; in the assay with MALME-3M melanoma, 261 nM; in the assay with NCI-H522 lung, 0.341 µM. The GI50 is 0.174 µM in the assay with SF-268 CNS, 229 nM in the assay with SK-MEL-2 melanoma, 97 nM with TK-10 renal and 234 nM in the assay on UO-31 renal. Besides, the TGI with 786-0 renal stood at 0.668 µM; in the assay with A498 renal it was 0.585 µM; in the assay with HS 578T breast, 7.16 µM; in the assay on K-562 leukemia it was 16.7 µM; in the assay on MALME-3M melanoma, 1.01 µM; in the assay with NCI-H522 lung, 1.61 µM. In addition, the TGI was 0.893 µM with SF-268 CNS, 1.5 µM with SK-MEL-2 melanoma, 0.237 µM in the assay on TK-10 renal and 0.966 µM with UO-31 renal.

With `CC(N1CCOCC1)C(O)(c1ccccc1)c1ccccn1` (stereo not given), the TGI with 786-0 renal, in the assay on A498 renal, with HS 578T breast, in the assay with K-562 leukemia, in the assay on MALME-3M melanoma and in the assay on NCI-H522 lung was above 100 µM throughout. The TGI with SF-268 CNS, in the assay with SK-MEL-2 melanoma, in the assay on TK-10 renal and with UO-31 renal was above 100 µM in each case.

With `O=C1/C(=C\c2ccccc2)C2OCC=C3CN4CCC56c7ccccc7N1C5C2C3CC46` (stereo not given), the GI50 in the assay with 786-0 renal was 9860 nM; with A498 renal, 3560 nM; with HS 578T breast, 62500 nM; in the assay with K-562 leukemia, 3.33 µM; with MALME-3M melanoma it was 4670 nM; with NCI-H522 lung, 8.01 µM. Also, the GI50 with SF-268 CNS is 79.3 µM; in the assay on SK-MEL-2 melanoma it was 3780 nM; with TK-10 renal, 7230 nM; in the assay on UO-31 renal, 4040 nM. The TGI in the assay on 786-0 renal is above 100 µM; in the assay with A498 renal it was 48 µM; in the assay with HS 578T breast, above 100 µM; in the assay on K-562 leukemia it was above 100 µM; in the assay on MALME-3M melanoma, 17.9 µM; in the assay with NCI-H522 lung, above 100 µM. The TGI in the assay on SF-268 CNS is above 100 µM; with SK-MEL-2 melanoma it was 18.4 µM; in the assay on TK-10 renal, 73.3 µM; with UO-31 renal it was above 100 µM.

Turning to `O=C(/C=C/c1ccc([N+](=O)[O-])cc1)c1cccc(Nc2nc(Nc3ccccc3)nc(Nc3ccccc3)n2)c1`, the GI50 is 13000 nM with 786-0 renal; 11800 nM in the assay with A498 renal; 1350 nM in the assay on HS 578T breast; 2.89 µM in the assay with K-562 leukemia; 38800 nM with MALME-3M melanoma; 12.4 µM in the assay with NCI-H522 lung. In addition, the GI50 with SF-268 CNS is 17.6 µM; in the assay on SK-MEL-2 melanoma it was 17700 nM; in the assay with TK-10 renal it was 54300 nM; in the assay with UO-31 renal it was 2180 nM. Further, the TGI is 43.1 µM in the assay on 786-0 renal; 28.1 µM in the assay on A498 renal; 5.97 µM with HS 578T breast; 28.2 µM in the assay on K-562 leukemia; above 100 µM in the assay with MALME-3M melanoma; above 100 µM with NCI-H522 lung. The TGI with SF-268 CNS was above 100 µM; with SK-MEL-2 melanoma, 54.6 µM; in the assay with TK-10 renal, above 100 µM; in the assay with UO-31 renal, above 100 µM.

For `O=C(/C=C/c1cccc2ccccc12)Nc1ncc(Cc2ccccc2)s1`, the GI50 with 786-0 renal is 704 nM; with A498 renal, 189 nM; in the assay on HS 578T breast, 703 nM; with K-562 leukemia, 0.397 µM; in the assay on MALME-3M melanoma, 627 nM; in the assay on NCI-H522 lung, 0.703 µM. In addition, the GI50 in the assay on SF-268 CNS was 2.61 µM; with SK-MEL-2 melanoma it was 1410 nM; with TK-10 renal, 1690 nM; in the assay with UO-31 renal, 1390 nM. Besides, the TGI in the assay with 786-0 renal is 3.27 µM; in the assay on A498 renal it was 0.72 µM; in the assay with HS 578T breast, 5.34 µM; with K-562 leukemia, above 100 µM; in the assay on MALME-3M melanoma, above 100 µM; with NCI-H522 lung it was above 32.8 µM. Moreover, the TGI in the assay with SF-268 CNS was above 100 µM; in the assay with SK-MEL-2 melanoma, above 100 µM; with TK-10 renal it was 4.87 µM; with UO-31 renal, 3.98 µM.

For the compound `CCN(CC)Cc1cc(Nc2c3ccccc3nc3cc(Cl)ccc23)ccc1O`, the GI50 with 786-0 renal is 1210 nM; with A498 renal it was 1730 nM; in the assay on HS 578T breast, 2260 nM; in the assay on K-562 leukemia, 1.69 µM; with MALME-3M melanoma it was 1940 nM; with NCI-H522 lung it was 1.12 µM. In addition, the GI50 is 1.63 µM with SF-268 CNS, 1750 nM in the assay on SK-MEL-2 melanoma, 1640 nM in the assay on TK-10 renal and 1340 nM in the assay with UO-31 renal. Moreover, the TGI in the assay with 786-0 renal stood at 2.46 µM; in the assay on A498 renal, 3.29 µM; with HS 578T breast, 6.24 µM; in the assay on K-562 leukemia it was 39 µM; in the assay with MALME-3M melanoma, 3.58 µM; in the assay with NCI-H522 lung it was 2.56 µM. In addition, the TGI in the assay on SF-268 CNS stood at 3.13 µM; in the assay on SK-MEL-2 melanoma, 3.36 µM; with TK-10 renal it was 3.23 µM; with UO-31 renal, 2.64 µM.

For `Cc1cc(Br)cc(C)c1NC(=O)C(=O)Nn1c(=S)[nH]c2ccccc2c1=O`, the TGI in the assay with 786-0 renal, in the assay on A498 renal, with HS 578T breast, in the assay with K-562 leukemia, with MALME-3M melanoma and with NCI-H522 lung was above 100 µM in each case. For the same compound, the TGI in the assay with SF-268 CNS, with SK-MEL-2 melanoma, in the assay on TK-10 renal and in the assay with UO-31 renal was above 100 µM each time.
